Assay results reported in patent publication US20110318393A1, “Substituted Pyrazole Compounds” (MIIKANA THERAPEUTICS, INC., priority 2008, published 2011).

What was measured:
Format in all cases: biochemical
[1] = target: T1, recombinant Aurora A (Homo sapiens, UniProt O14965); test: Aurora A (Aurora 2) inhibition assay, Z'-Lyte kinase assay; conditions: ATP 10 μM, 1 h; less than or equal to 100 nM
T1 construct: purchased Upstate, Lake Placid, N.Y
T1 sequence (O14965 1-403): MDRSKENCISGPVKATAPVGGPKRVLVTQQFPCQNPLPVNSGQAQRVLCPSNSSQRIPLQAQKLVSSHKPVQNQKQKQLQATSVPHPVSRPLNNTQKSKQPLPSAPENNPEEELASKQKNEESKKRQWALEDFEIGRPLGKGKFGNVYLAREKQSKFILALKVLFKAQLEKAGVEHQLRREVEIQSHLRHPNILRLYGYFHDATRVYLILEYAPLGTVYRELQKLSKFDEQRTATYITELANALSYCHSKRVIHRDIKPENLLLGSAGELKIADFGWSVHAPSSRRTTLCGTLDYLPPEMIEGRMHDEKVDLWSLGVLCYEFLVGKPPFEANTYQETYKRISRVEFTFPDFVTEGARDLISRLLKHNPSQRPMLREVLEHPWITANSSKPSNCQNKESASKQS
Experimental: Compounds were tested for their potency against recombinant Aurora A (Upstate, Lake Placid, N.Y.) using the PanVera Z′-Lyte kinase assay kit-Ser/Thr 1 peptide (Invitrogen, Carlsbad, Calif.). Assays were carried out in kinase assay buffer (50 mM HEPES, pH 7.5, 10 mM MgCl2, 5 mM EGTA, 0.05% Brij-35, 2 mM DTT). Test compounds were initially dissolved in DMSO at 100× the highest tested concentration, then serially diluted to 4× test concentrations in kinase assay buffer. Next, Aurora A (final concentration 200-500 ng/mL), Z′-Lyte Ser/Thr 1 peptide (final concentration 2 μM) and ATP (final concentration 10 μM) were added according to the manufacturer's instructions. Assays were carried out in half-area 96-well white polystyrene assay plates (Corning, Corning, N.Y.) in a final volume of 20 μl. The reaction was allowed to proceed for 1 h at room temperature in the dark, at which point the development reagent and stop reagent were added according to the manufacturer's instructions. Coumarin (Ex. 400 nm, Em. 465 nm) and fluorescein (Ex. 400 nm, Em. 565 nm) fluorescence values were measured on a SpectraFluor Plus plate reader (Tecan, Durham, N.C.). The emission ratio (coumarin/fluorescein) was determined and used to calculate the percent phosphorylation for each well. Wells containing substrate but no kinase and wells containing a phosphopeptide control were used to set 0% and 100% phosphorylation values, respectively. Typically 20-40% of the substrate was phosphorylated in wells without inhibitor. Dose-response curves of relative Aurora A activity vs. inhibitor concentration were plotted with Grafit (Erithacus Software, Horley, Surrey, UK).

[2] = target: T2, N-terminal GST-tagged recombinant human Flt3, residues 564-end (Homo sapiens, UniProt P36888); test: Flt3 kinase inhibition assay (33P-ATP filter assay); conditions: 40 minutes, room temperature; less than or equal to 100 nM
T2 construct: recombinant human Flt3, residues 564-end; GST (N); purchased Upstate USA Inc, Charlottesville, Va
T2 sequence (P36888 564-993 limits assumed): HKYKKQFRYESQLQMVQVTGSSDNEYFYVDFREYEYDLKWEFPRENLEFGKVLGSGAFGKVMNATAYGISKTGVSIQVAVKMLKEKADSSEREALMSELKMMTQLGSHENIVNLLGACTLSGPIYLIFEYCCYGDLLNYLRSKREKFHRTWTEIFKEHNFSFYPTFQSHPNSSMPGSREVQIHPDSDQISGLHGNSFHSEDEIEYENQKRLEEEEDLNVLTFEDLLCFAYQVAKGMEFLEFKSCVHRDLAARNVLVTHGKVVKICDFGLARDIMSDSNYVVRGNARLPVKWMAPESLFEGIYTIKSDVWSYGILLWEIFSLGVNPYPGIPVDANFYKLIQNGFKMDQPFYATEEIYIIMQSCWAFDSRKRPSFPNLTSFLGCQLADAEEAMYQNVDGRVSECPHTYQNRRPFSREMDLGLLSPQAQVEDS
Experimental: (§1) Compounds were assayed for Flt3 kinase inhibitory activity using N-terminal GST-tagged recombinant human Flt3, residues 564-end (Upstate USA Inc, 706 Forest Street, Charlottesville, Va.). Serial dilutions of compound were assayed in a final reaction volume of 25 μL by incubating a solution of the above Flt3 kinase (5-10 mU), 8 mM MOPS (3-(N-morpholino)propanesulfonic acid) pH 7.0, 0.2 mM EDTA (ethylenediamine tetracetic acid), 50 μM amino acid sequence EAIYAAPFAKKK (Upstate USA Inc, 706 Forest Street, Charlottesville, Va.), and 10 mM magnesium acetate and [γ-^33P-ATP] (specific activity of about 500 cpm/pmol, concentration as required). The reaction was initiated by the addition of the magnesium acetate and [γ-^33P-ATP] mixture. After incubation for 40 minutes at room temperature, the reaction was stopped by the addition of 5 μL of a 3% phosphoric acid solution. A 10 μL aliquote of the reaction was then spotted onto a P30 filtermat (PerkinElmer, Wellesley, Mass.) and washed three times for five minutes in 75 mM phosphoric acid and once in methanol prior to drying and scintillation counting. Inhibition of Flt3 activity was determined by comparison to assays that contained no inhibitor.

[3] = target: T3, N-terminal His6-tagged recombinant human KDR, residues 790-end (Homo sapiens, UniProt P35968); test: KDR kinase inhibition assay (33P-ATP filter assay); conditions: 40 minutes, room temperature; less than or equal to 100 nM
T3 construct: recombinant human KDR, residues 790-end; His6 (N); purchased Upstate USA Inc, Charlottesville, Va
Experimental: as §1, with “KDR” for “Flt3”, “His6-tagged” for “GST-tagged”, “KDR,” for “Flt3,”, “790-end” for “564-end”, “0.33 mg/mL myelin basic protein” for “50 μM amino acid sequence EAIYAAPFAKKK”

Measured: IC50

T3 sequence (P35968 790-1356 limits assumed): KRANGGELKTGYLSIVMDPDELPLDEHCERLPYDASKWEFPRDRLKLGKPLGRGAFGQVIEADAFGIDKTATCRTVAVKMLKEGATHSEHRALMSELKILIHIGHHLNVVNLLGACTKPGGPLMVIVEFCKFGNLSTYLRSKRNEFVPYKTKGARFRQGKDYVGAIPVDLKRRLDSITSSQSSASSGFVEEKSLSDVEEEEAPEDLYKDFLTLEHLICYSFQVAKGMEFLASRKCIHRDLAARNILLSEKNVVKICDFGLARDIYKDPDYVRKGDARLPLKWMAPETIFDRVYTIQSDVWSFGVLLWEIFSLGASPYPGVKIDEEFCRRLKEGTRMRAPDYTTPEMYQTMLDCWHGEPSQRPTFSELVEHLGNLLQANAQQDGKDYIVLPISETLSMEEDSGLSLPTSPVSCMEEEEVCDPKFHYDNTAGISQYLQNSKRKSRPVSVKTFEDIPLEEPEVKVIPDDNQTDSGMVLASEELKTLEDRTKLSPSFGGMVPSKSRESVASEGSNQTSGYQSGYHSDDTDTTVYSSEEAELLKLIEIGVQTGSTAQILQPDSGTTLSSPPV

Cc1cc(Nc2cc(N3CCC(N4CCCCC4)CC3)nc(/C=C/c3ccccc3)n2)n[nH]1 [Compound 5, (E)-6-(1,4′-bipiperidin-1′-yl)-N-(5-methyl-1H-pyrazol-3-yl)-2-styrylpyrimidin-4-amine]
≤ 100 nM: all assays above

Cc1cc(Nc2cc(N3CCN(c4ccncc4)CC3)nc(/C=C/c3ccccc3)n2)n[nH]1 [Compound 22, (E)-N-(5-methyl-1H-pyrazol-3-yl)-6-(4-(pyridin-4-yl)piperazin-1-yl)-2-styrylpyrimidin-4-amine]
≤ 100 nM: all assays above
